From patent publication US20110288154A1, “RNA Interference Mediated Inhibition of Epithelial Sodium Channel (ENaC) Gene Expression Using Short Interfering Nucleic Acid (siNA)” (MERCK & CO., INC., priority 2008, published 2011)
[invAb] = inverted abasic unit; m = 2'-O-methyl; r = 2'-OH (RNA); f = 2'-fluoro

What was measured:
[1] = test system: rSCNN1A (r ENaCα) mRNA; assay: Screening of ENaCα siNAs in Rat H-4-II-E cells (quantitative RT-PCR); assay type: cell-based; parameters: Percent Reduction of the r ENaCα mRNA relative to a non-targeting control siNA (NTCs) / Rat % KD (efficacy of ENaCα mRNA knockdown): concentration or dose not given beside the values; conditions: Rat H-4-II-E cells, n = 3; for Mean (rSCNN1A expression normalized to the level of rGAPDH) / Percent Reduction of the r ENaCα mRNA relative to a non-targeting control siNA (NTCs) / Avg GAPDH Expression (rGAPDH): 24 hours post-transfection; for Avg ENaCα Expression (rSCNN1A): harvested 24 hours post-transfection; for Avg GAPDH Expression (rGAPDH): housekeeping gene used for normalisation
Protocol: (§1) A series of probes and primers were used to detect the various mRNA transcripts of the genes of ENaCa and GAPDH in mouse, rat, and human cell lines. The assays were performed on an ABI 7500 instrument, according to the manufacturer's instructions. Within each experiment, the baseline was set in the exponential phase of the amplification curve, and based on the intersection point of the baselines with the amplification curve, a Ct value was assigned by the instrument. This Ct value was then assigned a QTY value based on the Standard Curve. The standard curve in the various experiments herein used 1 ng to 300 ng of RNA extracted from the same cell line used for the experimental transfections.
(§2) All IC50 values were calculated from the data using GraphPad Prizm software, specifically a sigmoidal, variable slope curve for simple ligand binding. Also, unless otherwise indicated, all calculations of the efficacy and potency (e.g., % knockdown) of the siNAs were done relative to a non-targeting control siNA. If reported, P-values were computed using The Students t-test, including the Welch Correction for unequal variances.
(§3) In all of the calculations of the % knock-down of mRNA, the calculation was made relative to the normalized level of expression of the gene of interest in the samples treated with the non-targeting control (NTC) unless otherwise indicated. The gene of interest expression level was divided by the level of expression of GAPDH or 36B4 (depending on the species) in each sample. The three replicates for each condition in each experiment were averaged and the standard deviation of those samples was calculated. The following formula was then used to calculate the % of knock-down of the gene of interest:
(§4) The ENaCα siNAs were designed and synthesized as described previously. The siNAs were screened in three cell lines. Human A549 cells, mouse NIH 3T3 and Rat H-4-II-E cells. The data from the screen of ENaCa siNAs in all three species is shown in Tables 3a, 3b, 4a, 4b, 5a, and 5b and a summary of the data for certain siNA molecules is presented in Table 6. Each screen was performed at 24 hrs. The decision to use this time point was based upon the degree of knockdown of the mRNA seen at that time point.

[2] = test system: mSCNN1A mRNA; assay: Screening of ENaCα siNAs in mouse NIH 3T3 cells (quantitative RT-PCR); assay type: cell-based; parameters: Percent Reduction of the mSCNN1A mRNA relative to a non-targeting control siNA / Mouse % KD (efficacy of ENaCα mRNA knockdown): concentration or dose not given beside the values; conditions: mouse NIH 3T3 cells, n = 3; for Mean (mSCNN1A expression normalized to the level of m36B4) / Percent Reduction of the mSCNN1A mRNA relative to a non-targeting control siNA / Avg 36B4 Expression: 24 hours post-transfection; for Avg ENaCα Expression (mSCNN1A): harvested 24 hours post-transfection; for Avg 36B4 Expression: housekeeping gene used for normalisation
Protocol: siNA constructs (Table 1b) may be tested for efficacy in reducing ENaC RNA expression in, for example, A549 human lung carcinoma cells. A549 (human; ATCC cat# CCL-185) cells were cultured at 37° C. in the presence of 5% CO2 and grown in Ham's F12K medium with 2 mM L-glutamine adjusted to contain 1.5 g/L sodium bicarbonate and supplemented with fetal bovine serum at a final concentration of 10% and 100 U/mL penicillin. The A549 cells were plated approximately 24 hours before transfection in 96-well plates at 7,500 cells/well, 100 μl/well. After 24 hours complexes containing siNA and Lipofectamine 2000 (Invitrogen) were created as follows: a solution of Lipofectamine 2000 in OPTI-MEM was prepared containing Lipofectamine 2000 at a final concentration of 14 μg/ml. In parallel, solutions of the siNAs were prepared in OPTI-MEM at a final concentration of 150 nM. After both solutions were incubated at 20° C. for 20 minutes an equal volume of the siNA solutions and the Lipofectamine 2000 solution were added together for each of the siNAs. The resultant solution has the siNAs at a final concentration of 75 nM and Lipofectamine 2000 at a final concentration of 7 μg/ml. This solution was incubated at 20° C. for 20 minutes. After incubation 50 μl of the solution were added to each of the wells (in triplicate). The final concentration of siNA in each well was 25 nM and the final concentration of Lipofectamine 2000 in each well was 2.33 μg/ml. The plates were incubated for 48 hours with no change of media before harvesting. Dose response curves were determined in a similar manner with each concentration being done in triplicate and maintaining a constant amount of Lipofectamine 2000 in each transfection.
as §1, §2, §3, §4

Row | Substance | Mean (rSCNN1A expression normalized to the level of rGAPDH) [1] | Percent Reduction of the r ENaCα mRNA relative to a non-targeting control siNA (NTCs) [1] | Avg ENaCα Expression (rSCNN1A) [1] | Avg GAPDH Expression (rGAPDH) [1] | Mean (mSCNN1A expression normalized to the level of m36B4) [2] | Percent Reduction of the mSCNN1A mRNA relative to a non-targeting control siNA [2] | Avg ENaCα Expression (mSCNN1A) [2] | Avg 36B4 Expression [2]
1 | B ccAuccGccuGGuGuGcuc TTB / GAGcAcAccAGGcGGAuGGUU (chain 1 CCAUCCGCCUGGUGUGCUCTT; chain 2 GAGCACACCAGGCGGAUGGUU; siRNA; chain 1: DNA at AGT, 2'-fluoro at CU, [invAb] at 5' end, 3' end, backbone not given here; chain 2: sugars from the 5' end rrrfmfmffmmmfmmmfmmmm, backbone not given here) [Site 311] | 0.83 | 35.2% | 16.42 | 19.71 | 0.23 | 4.6% | 3.83 | 16.80
2 | B uGGcuGuGccuAcAucuuc TTB / GAAGAuGuAGGcAcAGccAUU (sense UGGCUGUGCCUACAUCUUCTT; antisense GAAGAUGUAGGCACAGCCAUU; siRNA; sense: DNA at AGT, 2'-fluoro at CU, [invAb] at 5' end, 3' end, backbone not given here; antisense: sugars from the 5' end rrrmmfmfmmmfmfmmffmmm, backbone not given here) [Site 1386] | 0.48 | 48.3% | 17.21 | 36.31 | 0.09 | 31.9% | 2.35 | 25.00
3 | B AccGcAuGAAGAcGGccuu TTB / AAGGccGucuucAuGcGGuUU (chain 1 ACCGCAUGAAGACGGCCUUTT; chain 2 AAGGCCGUCUUCAUGCGGUUU; siRNA; chain 1: DNA at AGT, 2'-fluoro at CU, [invAb] at 5' end, 3' end, backbone not given here; chain 2: sugars from the 5' end rrrmffmfffffmfmfmmfmm, backbone not given here) [Site 338] | 0.79 | 38.7% | 14.22 | 18.42 | 0.26 | −9.5% | 3.24 | 12.29
4 | B cccuGcuGuccAcAGuGAc TTB / GUCAcuGuGGAcAGcAGGGUU (sense CCCUGCUGUCCACAGUGACTT; antisense GUCACUGUGGACAGCAGGGUU; siRNA; sense: DNA at AGT, 2'-fluoro at CU, [invAb] at 5' end, 3' end, backbone not given here; antisense: sugars from the 5' end rrrmffmfmmmfmmfmmmmmm, backbone not given here) [Site 1121] | 0.84 | 34.6% | 19.44 | 23.01 | 0.27 | −14.5% | 3.39 | 11.45
